Source: ChEMBL document CHEMBL1153189, “The comparative antimalarial properties of weak base and neutral synthetic ozonides” (Bioorg Med Chem Lett, 2010)
In brackets after ≈: the same amount, converted by molar mass.

What was measured:
[1] = test system: Plasmodium falciparum; assay: Antimalarial activity against chloroquine-sensitive Plasmodium falciparum NF54; assay type: functional, organism-based
[2] = test system: Plasmodium berghei; assay: Antimalarial activity against Plasmodium berghei infected in NMRI mice (Mus musculus) assessed as reduction in parasitaemia at 10 mg/kg, perorally administered 1 day post infection; assay type: functional; parameters: scale not given: the % may be the effect or the level left; settings: route oral
[3] = test system: Plasmodium berghei; assay: Antimalarial activity against Plasmodium berghei infected in NMRI mice (Mus musculus) assessed as reduction in parasitaemia at 3 mg/kg, perorally administered for 3 days post infection; assay type: functional; parameters: scale not given: the % may be the effect or the level left; settings: route oral
[4] = test system: Plasmodium berghei; assay: Antimalarial activity against Plasmodium berghei infected in NMRI mice (Mus musculus) assessed as survival time at 3 mg/kg, perorally administered for 3 days post infection; assay type: functional; settings: route oral
[5] = test system: Plasmodium berghei; assay: Antimalarial activity against Plasmodium berghei infected in NMRI mice (Mus musculus) assessed as cure rat at 3 mg/kg, perorally administered for 3 days post infection measured after 30 days; assay type: functional; settings: route oral
[6] = test system: Rattus norvegicus; assay: Half life in Sprague-Dawley rat at 10 mg/kg, iv; assay type: ADME, organism-based; parameters: dose 10 mg/kg, route intravenous; settings: in vivo
[7] = test system: Rattus norvegicus; assay: Volume of distribution in Sprague-Dawley rat at 10 mg/kg, iv; assay type: ADME, organism-based; parameters: dose 10 mg/kg, route intravenous; settings: in vivo
[8] = Oral bioavailability in Sprague-Dawley rat at 10 mg/kg; assay type: ADME, organism-based; settings: in vivo
[9] = molecular target: Cytochrome P450 2D6 (Homo sapiens, UniProt P10635); assay: Inhibition of CYP2D6; assay type: ADME
[10] = molecular target: Cytochrome P450 3A4 (Homo sapiens, UniProt P08684); assay: Inhibition of CYP3A4; assay type: ADME
[11] = molecular target: Cytochrome P450 2C9 (Homo sapiens, UniProt P11712); assay: Inhibition of CYP2C9; assay type: ADME
[12] = molecular target: Cytochrome P450 2C19 (Homo sapiens, UniProt P33261); assay: Inhibition of CYP2C19; assay type: ADME
[13] = Lipophilicity, log D at pH 7.4; assay type: physicochemical; settings: buffer
[14] = in vitro; settings: human, liver microsomes
Description: Metabolic stability in human liver microsomes assessed as hepatic extraction ratio

[15] = test system: Plasmodium falciparum; assay: Antimalarial activity against chloroquine-resistant Plasmodium falciparum K1; assay type: functional, organism-based

Sequence of Cytochrome P450 3A4 (P08684 whole entry): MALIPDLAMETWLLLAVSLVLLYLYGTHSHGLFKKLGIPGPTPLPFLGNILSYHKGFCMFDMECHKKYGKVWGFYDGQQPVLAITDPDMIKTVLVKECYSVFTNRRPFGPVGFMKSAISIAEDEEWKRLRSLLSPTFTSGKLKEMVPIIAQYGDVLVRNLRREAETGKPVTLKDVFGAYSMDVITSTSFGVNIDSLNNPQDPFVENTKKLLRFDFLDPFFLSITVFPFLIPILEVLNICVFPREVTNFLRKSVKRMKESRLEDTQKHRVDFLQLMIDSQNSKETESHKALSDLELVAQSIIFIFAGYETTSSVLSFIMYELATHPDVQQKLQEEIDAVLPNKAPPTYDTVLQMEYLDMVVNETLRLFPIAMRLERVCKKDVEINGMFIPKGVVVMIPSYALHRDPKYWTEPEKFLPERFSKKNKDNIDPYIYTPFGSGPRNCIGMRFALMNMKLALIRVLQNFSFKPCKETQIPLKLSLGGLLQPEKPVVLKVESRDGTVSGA
Sequence of Cytochrome P450 2C19 (P33261 whole entry): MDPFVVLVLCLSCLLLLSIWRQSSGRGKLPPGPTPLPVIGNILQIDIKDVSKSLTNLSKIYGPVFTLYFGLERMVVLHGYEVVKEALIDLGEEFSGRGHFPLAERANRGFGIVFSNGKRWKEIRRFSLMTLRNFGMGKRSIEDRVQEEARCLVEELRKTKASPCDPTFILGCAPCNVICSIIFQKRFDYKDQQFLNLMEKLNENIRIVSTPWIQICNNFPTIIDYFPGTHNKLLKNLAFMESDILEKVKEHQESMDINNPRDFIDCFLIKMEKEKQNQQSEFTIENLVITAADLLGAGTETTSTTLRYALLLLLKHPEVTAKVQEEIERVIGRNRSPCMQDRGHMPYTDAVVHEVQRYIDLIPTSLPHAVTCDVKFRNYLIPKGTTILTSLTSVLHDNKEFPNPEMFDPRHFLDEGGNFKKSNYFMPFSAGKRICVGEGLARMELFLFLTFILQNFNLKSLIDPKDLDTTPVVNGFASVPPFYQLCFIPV
Sequence of Cytochrome P450 2D6 (P10635 whole entry): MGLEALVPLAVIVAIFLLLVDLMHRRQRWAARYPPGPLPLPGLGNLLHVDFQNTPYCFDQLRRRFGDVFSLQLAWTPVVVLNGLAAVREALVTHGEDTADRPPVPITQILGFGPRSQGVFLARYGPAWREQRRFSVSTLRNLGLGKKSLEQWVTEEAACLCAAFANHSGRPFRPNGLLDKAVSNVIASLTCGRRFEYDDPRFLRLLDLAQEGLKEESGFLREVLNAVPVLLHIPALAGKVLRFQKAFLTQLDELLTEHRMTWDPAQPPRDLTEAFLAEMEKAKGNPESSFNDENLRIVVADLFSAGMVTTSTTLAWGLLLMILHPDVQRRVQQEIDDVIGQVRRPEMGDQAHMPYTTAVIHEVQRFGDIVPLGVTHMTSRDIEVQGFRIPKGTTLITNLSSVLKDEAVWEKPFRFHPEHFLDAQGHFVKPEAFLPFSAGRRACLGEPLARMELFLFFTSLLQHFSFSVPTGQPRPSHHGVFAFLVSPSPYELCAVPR
Sequence of Cytochrome P450 2C9 (P11712 whole entry): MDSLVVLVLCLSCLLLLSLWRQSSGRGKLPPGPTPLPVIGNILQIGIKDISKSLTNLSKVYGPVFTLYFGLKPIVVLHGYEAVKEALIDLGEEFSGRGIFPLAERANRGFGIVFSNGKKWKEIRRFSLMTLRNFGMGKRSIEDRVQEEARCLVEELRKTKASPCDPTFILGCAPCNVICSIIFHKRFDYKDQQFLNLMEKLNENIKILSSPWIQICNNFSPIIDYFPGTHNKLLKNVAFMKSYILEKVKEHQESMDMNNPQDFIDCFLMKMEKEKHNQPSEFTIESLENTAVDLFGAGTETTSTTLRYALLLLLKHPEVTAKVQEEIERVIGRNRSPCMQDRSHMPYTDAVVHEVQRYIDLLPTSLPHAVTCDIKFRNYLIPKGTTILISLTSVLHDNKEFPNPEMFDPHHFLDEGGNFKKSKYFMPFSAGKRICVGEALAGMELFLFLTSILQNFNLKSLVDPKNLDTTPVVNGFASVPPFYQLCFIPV

O=C(NCC1CCC2(CC1)OOC1(O2)C2CC3CC(C2)CC1C3)c1ccccn1 (stereo not drawn)
IC50 [1]: 1.1 ng/mL (≈ 2.76 nM)
Activity [2]: 99.6%

NC[C@H]1CC[C@]2(CC1)OOC1(O2)C2CC3CC(C2)CC1C3 (stereo partly drawn)
Activity [2]: >99.9%
Activity [3]: >99.9%
Survival [4]: 12.8 days
Activity [5]: 0%
t1/2 [6]: 1.5 h
Vd [7]: 46 L/kg
bioavailability [8]: 31%
Activity [9]: Not Active
IC50 [10]: 9.7 µM
IC50 [11]: 17 µM
IC50 [12]: 0.11 µM
logD [13]: 2.6
hepatic extraction ratio [14]: 0.24

Cc1ccc(S(=O)(=O)O)cc1.Cc1ccc(S(=O)(=O)O)cc1.O=C(CN1CCNCC1)NC[C@H]1CC[C@]2(CC1)OO[C@]1(O2)C2CC3CC(C2)CC1C3
IC50 [15]: 0.59 ng/mL
IC50 [1]: 1.4 ng/mL
Activity [2]: 99.7%

O=CNCC(=O)NC[C@H]1CC[C@]2(CC1)OO[C@]1(O2)C2CC3CC(C2)CC1C3
IC50 [15]: 0.9 ng/mL (≈ 2.38 nM)
Activity [2]: 98%

O=C(O)CCC(=O)NC[C@H]1CC[C@]2(CC1)OO[C@]1(O2)C2CC3CC(C2)CC1C3
IC50 [15]: 71 ng/mL (≈ 180 nM)
IC50 [1]: 97 ng/mL (≈ 247 nM)
Activity [2]: <40%

O=C1CNC(=O)N1C[C@H]1CC[C@]2(CC1)OO[C@]1(O2)C2CC3CC(C2)CC1C3
IC50 [15]: 1 ng/mL (≈ 2.66 nM)
IC50 [1]: 2.7 ng/mL (≈ 7.17 nM)
Activity [2]: 92%

CS(=O)(=O)O.NCC(=O)NC[C@H]1CC[C@]2(CC1)OO[C@]1(O2)C2CC3CC(C2)CC1C3
IC50 [15]: 0.36 ng/mL
IC50 [1]: 0.29 ng/mL
Activity [2]: 99.9%
Activity [3]: >99.9%
Activity [5]: 0%

NC1(C(=O)NC[C@H]2CC[C@]3(CC2)OO[C@]2(O3)C3CC4CC(C3)CC2C4)CCCCC1
IC50 [15]: 0.24 ng/mL (≈ 0.573 nM)
IC50 [1]: 0.44 ng/mL (≈ 1.05 nM)
Activity [2]: 99.9%

Cc1ccc(S(=O)(=O)O)cc1.NCCC(=O)NC[C@H]1CC[C@]2(CC1)OO[C@]1(O2)C2CC3CC(C2)CC1C3
Activity [2]: 99.9%
Activity [3]: >99.9%
Survival [4]: 20.8 days
Activity [5]: 0%

O=C(CN1CCOCC1)NC[C@H]1CC[C@]2(CC1)OO[C@]1(O2)C2CC3CC(C2)CC1C3.O=C(O)/C=C\C(=O)O
IC50 [15]: 0.88 ng/mL
IC50 [1]: 1.8 ng/mL
Activity [2]: 99%
logD [13]: 5

CS(=O)(=O)O.O=C(NC[C@H]1CC[C@]2(CC1)OO[C@]1(O2)C2CC3CC(C2)CC1C3)C(=O)N1CCNCC1
IC50 [15]: 0.69 ng/mL
IC50 [1]: 0.54 ng/mL
Activity [2]: 99.9%

NC(=O)NC[C@H]1CC[C@]2(CC1)OO[C@]1(O2)C2CC3CC(C2)CC1C3
IC50 [15]: 0.56 ng/mL (≈ 1.66 nM)
IC50 [1]: 1.6 ng/mL (≈ 4.76 nM)
Activity [2]: 98%

O=C(NC[C@H]1CC[C@]2(CC1)OO[C@]1(O2)C2CC3CC(C2)CC1C3)c1ccncc1
IC50 [15]: 2.2 ng/mL (≈ 5.52 nM)
IC50 [1]: 1.1 ng/mL (≈ 2.76 nM)
Activity [2]: 99.5%

CS(=O)(=O)O.O=C(NC[C@H]1CC[C@]2(CC1)OO[C@]1(O2)C2CC3CC(C2)CC1C3)c1c[nH]cn1
IC50 [15]: 0.84 ng/mL
IC50 [1]: 1.1 ng/mL
Activity [2]: 99.5%

CCNC(=O)NC[C@H]1CC[C@]2(CC1)OO[C@]1(O2)C2CC3CC(C2)CC1C3
Activity [2]: 98%

O=C(NC[C@H]1CC[C@]2(CC1)OO[C@]1(O2)C2CC3CC(C2)CC1C3)N1CCOCC1
Activity [2]: 98%

Cc1ccc(S(=O)(=O)O)cc1.O=C(NC[C@H]1CC[C@]2(CC1)OO[C@]1(O2)C2CC3CC(C2)CC1C3)N1CCNCC1
IC50 [15]: 0.43 ng/mL
IC50 [1]: 0.68 ng/mL
Activity [2]: >99.9%
Activity [3]: >99.9%
Survival [4]: 27 days
Activity [5]: 40%

NC1(C(=O)NC[C@H]2CC[C@]3(CC2)OO[C@]2(O3)C3CC4CC(C3)CC2C4)CCCC1
IC50 [15]: 0.33 ng/mL (≈ 0.816 nM)
IC50 [1]: 0.36 ng/mL (≈ 0.89 nM)
Activity [2]: 99.9%

Cc1ccc(S(=O)(=O)O)cc1.O=C(CNC1CC1)NC[C@H]1CC[C@]2(CC1)OO[C@]1(O2)C2CC3CC(C2)CC1C3
IC50 [15]: 0.39 ng/mL
IC50 [1]: 1.2 ng/mL
Activity [2]: 99.6%
